# Read-outs that look alike come from different tables or passages of the source.
# Columns and labels:
# [1] = system: Enterobacter cloacae GN 5797; assay: Induction of β-lactamase by β-lactam antibiotics; format: cell-based; conditions: induced β-lactamase activity of crude enzyme; Concentration 10 µg/ml; Incubation time 3 hr; Substrate: 100 µM of cephaloridine
# Protocol: The assay method for induction of β-lactamase by β-latam antibiotics was as follows: The test organism, Enterobacter cloacae GN 5797, was grown overnight in Mueller Hinton broth (Dlfco Laboratories, Detroit, Mich.) at 37°C. The culture was diluted l0-fold into 20 ml of the flesh medium and incubated with shaking at 37°C. After 2 hours of incubation, antibiotics were added to final concentrations of 50 µg/ml, l0 µg/ml and l µg/ml, and the incubation was continued. At l hour intervals after the addition of antibiotic, 5 ml of sample was taken, and immediately added with 0.l ml of 50 mM sodium azide. The cells were harvested and washed with 50 mM phosphate buffer (pH 7.0). The cells were suspended in 5 ml of 50 mM phosphate buffer and disrupted with a sonicater in an ice-water bath. The broken cells were centrifuged at l6,500 G for 40 minutes at 4°C, and the resulting supernatant fluid was used as the crude enzyme. β-Lactamase activity was determined by a spectrophotometric method (Antmicrob. Agents Chemother. 17, 355-358, 1980) with cephaloridine as substrate. The concentration of protein was determined by the method of Lowry (J. Biol. Chem. 193, 265-275, 1951).
# Ps.aeruginosa AK 109 = assay: In vitro antibacterial activity, agar plate dilution method (MIC); format: cell-based; conditions: Pseudomonas aeruginosa, AK109; Ps.aeruginosa AK 109; Mueller Hinton agar, inoculum 10⁶ CFU/ml, 37°C, 16 hours; read-out: Minimum Inhibitory Concentration (MIC: µg/ml)
# S.aureus BB5703 = assay: as above; format: cell-based; conditions: Staphylococcus aureus; S.aureus BB5703; Mueller Hinton agar, inoculum 10⁶ CFU/ml, 37°C, 16 hours; read-out: Minimum Inhibitory Concentration (MIC: µg/ml)
# C.freundii GN346 = assay: as above; format: cell-based; conditions: Citrobacter freundii; C.freundii GN346 (β-Lactamase-producing strain); Mueller Hinton agar, inoculum 10⁶ CFU/ml, 37°C, 16 hours; read-out: Minimum Inhibitory Concentration (MIC: µg/ml)
# P.vulgaris No. 33 = assay: as above; format: cell-based; conditions: Proteus vulgaris; P.vulgaris No. 33 (β-Lactamase-producing strain); Mueller Hinton agar, inoculum 10⁶ CFU/ml, 37°C, 16 hours; read-out: Minimum Inhibitory Concentration (MIC: µg/ml)
# S.marcescens No. 16-2 = assay: as above; format: cell-based; conditions: Serratia marcescens, NO.162; S.marcescens No. 16-2 (β-Lactamase-producing strain); Mueller Hinton agar, inoculum 10⁶ CFU/ml, 37°C, 16 hours; read-out: Minimum Inhibitory Concentration (MIC: µg/ml)
# E.cloacae 963 = assay: as above; format: cell-based; conditions: Enterobacter cloacae; E.cloacae 963; Mueller Hinton agar, inoculum 10⁶ CFU/ml, 37°C, 16 hours; read-out: Minimum Inhibitory Concentration (MIC: µg/ml)
# S.aureus JS1 = assay: as above; format: cell-based; conditions: Staphylococcus aureus; S.aureus JS1 (β-Lactamase-producing strain); Mueller Hinton agar, inoculum 10⁶ CFU/ml, 37°C, 16 hours; read-out: Minimum Inhibitory Concentration (MIC: µg/ml)
# Ps.aeruginosa IFO3445 = assay: as above; format: cell-based; conditions: Pseudomonas aeruginosa; Ps.aeruginosa IFO3445; Mueller Hinton agar, inoculum 10⁶ CFU/ml, 37°C, 16 hours; read-out: Minimum Inhibitory Concentration (MIC: µg/ml)
# E.coli NIHJ JC2 = assay: as above; format: cell-based; conditions: Escherichia coli, NIHJJC2; E.coli NIHJ JC2; Mueller Hinton agar, inoculum 10⁶ CFU/ml, 37°C, 16 hours; read-out: Minimum Inhibitory Concentration (MIC: µg/ml)
# K.pneumoniae No. 42 = assay: as above; format: cell-based; conditions: Klebsiella pneumoniae, read-out: Minimum Inhibitory Concentration (MIC: µg/ml)
# Ps.aeruginosa AKR17 = assay: as above; format: cell-based; conditions: Pseudomonas aeruginosa; Ps.aeruginosa AKR17; Mueller Hinton agar, inoculum 10⁶ CFU/ml, 37°C, 16 hours; read-out: Minimum Inhibitory Concentration (MIC: µg/ml)
# P.vulgaris HX-19 = assay: as above; format: cell-based; conditions: Proteus vulgaris, HX19; P.vulgaris HX-19; Mueller Hinton agar, inoculum 10⁶ CFU/ml, 37°C, 16 hours; read-out: Minimum Inhibitory Concentration (MIC: µg/ml)
# M.luteus ATCC9341 = assay: as above; format: cell-based; conditions: Micrococcus luteus; M.luteus ATCC9341; Mueller Hinton agar, inoculum 10⁶ CFU/ml, 37°C, 16 hours; read-out: Minimum Inhibitory Concentration (MIC: µg/ml)
# S.aureus 209P NIHJ-JC1 = assay: as above; format: cell-based; conditions: Staphylococcus aureus; S.aureus 209P NIHJ-JC1; Mueller Hinton agar, inoculum 10⁶ CFU/ml, 37°C, 16 hours; read-out: Minimum Inhibitory Concentration (MIC: µg/ml)
# C.freundii GN346/16 = assay: as above; format: cell-based; conditions: Citrobacter freundii; C.freundii GN346/16; Mueller Hinton agar, inoculum 10⁶ CFU/ml, 37°C, 16 hours; read-out: Minimum Inhibitory Concentration (MIC: µg/ml)
# E.coli CSH(RE45) = assay: as above; format: cell-based; conditions: Escherichia coli, 16 h, read-out: Minimum Inhibitory Concentration (MIC: µg/ml)
# E.coli CSH2 (RK1) = assay: as above; format: cell-based; conditions: Escherichia coli, 16 h, read-out: Minimum Inhibitory Concentration (MIC: µg/ml)
# E.cloacae Nek 39 = assay: as above; format: cell-based; conditions: Enterobacter cloacae, NEK39; E.cloacae Nek 39 (β-Lactamase-producing strain); Mueller Hinton agar, inoculum 10⁶ CFU/ml, 37°C, 16 hours; read-out: Minimum Inhibitory Concentration (MIC: µg/ml)
# K.oxytoca GN10650 = assay: as above; format: cell-based; conditions: Klebsiella oxytoca; K.oxytoca GN10650 (β-Lactamase-producing strain); Mueller Hinton agar, inoculum 10⁶ CFU/ml, 37°C, 16 hours; read-out: Minimum Inhibitory Concentration (MIC: µg/ml)
# M.morganii GN5407 = assay: as above; format: cell-based; conditions: Morganella morganii; M.morganii GN5407 (β-Lactamase-producing strain); Mueller Hinton agar, inoculum 10⁶ CFU/ml, 37°C, 16 hours; read-out: Minimum Inhibitory Concentration (MIC: µg/ml)
# S.epidermidis IAM12012 = assay: as above; format: cell-based; conditions: Staphylococcus epidermidis; S.epidermidis IAM12012; Mueller Hinton agar, inoculum 10⁶ CFU/ml, 37°C, 16 hours; read-out: Minimum Inhibitory Concentration (MIC: µg/ml)
# A.calcoaceticus No. 4 = assay: as above; format: cell-based; conditions: Acinetobacter calcoaceticus; A.calcoaceticus No. 4; Mueller Hinton agar, inoculum 10⁶ CFU/ml, 37°C, 16 hours; read-out: Minimum Inhibitory Concentration (MIC: µg/ml)
# E.coli GN5482 = assay: as above; format: cell-based; conditions: Escherichia coli; E.coli GN5482 (β-Lactamase-producing strain); Mueller Hinton agar, inoculum 10⁶ CFU/ml, 37°C, 16 hours; read-out: Minimum Inhibitory Concentration (MIC: µg/ml)
# S.marcescens IAM 1184 = assay: as above; format: cell-based; conditions: Serratia marcescens, IAM1184; S.marcescens IAM 1184; Mueller Hinton agar, inoculum 10⁶ CFU/ml, 37°C, 16 hours; read-out: Minimum Inhibitory Concentration (MIC: µg/ml)
# K.pneumoniae PCI-602 = assay: as above; format: cell-based; conditions: Klebsiella pneumoniae, PCI602; K.pneumoniae PCI-602; Mueller Hinton agar, inoculum 10⁶ CFU/ml, 37°C, 16 hours; read-out: Minimum Inhibitory Concentration (MIC: µg/ml)
# Ps.cepacia 23 = assay: as above; format: cell-based, Pseudomonas cepacia; conditions: Burkholderia cepacia; Ps.cepacia 23; Mueller Hinton agar, inoculum 10⁶ CFU/ml, 37°C, 16 hours; read-out: Minimum Inhibitory Concentration (MIC: µg/ml)
# Ps.maltophilia GN 12873 = assay: as above; format: cell-based, Pseudomonas maltophilia; conditions: Stenotrophomonas maltophilia, GN12873; Ps.maltophilia GN 12873 (β-Lactamase-producing strain); Mueller Hinton agar, inoculum 10⁶ CFU/ml, 37°C, 16 hours; read-out: Minimum Inhibitory Concentration (MIC: µg/ml)
Structure (SMILES),MIC (Ps.aeruginosa AK 109),MIC (S.aureus BB5703),MIC (C.freundii GN346),MIC (P.vulgaris No. 33),MIC (S.marcescens No. 16-2),MIC (E.cloacae 963),MIC (S.aureus JS1),MIC (Ps.aeruginosa IFO3445),MIC (E.coli NIHJ JC2),MIC (Ps.aeruginosa AKR17),MIC (P.vulgaris HX-19),MIC (M.luteus ATCC9341),MIC (S.aureus 209P NIHJ-JC1),MIC (C.freundii GN346/16),MIC (E.coli CSH(RE45)),MIC (E.coli CSH2 (RK1)),MIC (E.cloacae Nek 39),MIC (K.oxytoca GN10650),MIC (M.morganii GN5407),MIC (S.epidermidis IAM12012),further results
"CO[C@@]1(NC(=O)Cc2cccs2)C(=O)N2C(C(=O)O)=C(COC(N)=O)CS[C@@H]21 [Cefoxitin, reference compound]",–,–,–,–,–,–,–,–,–,–,–,–,–,–,–,–,–,–,–,–,Specific activity (unit/mg protein) [1]: 0.238 unit/mg protein
"CO/N=C(\C(=O)NC1C(=O)N2C(C(=O)[O-])=C(C[n+]3ccc4cc(OC(C)=O)c(OC(C)=O)cc4c3)CSC12)c1csc(N)n1 (stereo not shown) [Ex. 8, 3-(6,7-diacetoxy-2-isoquinolino)methyl-7-[2-(2-aminothiazol-4-yl)-2-methoxyiminoacetamido]-3-cephem-4-carboxylate]",0.78 µg/mL,12.5 µg/mL,50 µg/mL,0.1 µg/mL,1.56 µg/mL,0.025 µg/mL,50 µg/mL,0.78 µg/mL,0.1 µg/mL,100 µg/mL,0.025 µg/mL,0.78 µg/mL,6.25 µg/mL,0.78 µg/mL,0.1 µg/mL,0.0125 µg/mL,0.2 µg/mL,0.2 µg/mL,0.05 µg/mL,3.12 µg/mL,"MIC (K.pneumoniae No. 42; NO.42, 16 h): 0.0125 µg/mL; MIC (A.calcoaceticus No. 4): 0.2 µg/mL; MIC (E.coli GN5482): 0.78 µg/mL; MIC (S.marcescens IAM 1184): 0.025 µg/mL; MIC (K.pneumoniae PCI-602): < 0.006 µg/mL; MIC (Ps.cepacia 23): 0.2 µg/mL; MIC (Ps.maltophilia GN 12873): > 100 µg/mL"
"CC(C)(ON=C(C(=O)NC1C(=O)N2C(C(=O)[O-])=C(C[n+]3ccc4ccccc4c3)CSC12)c1csc(N)n1)C(=O)O (stereo not drawn) [Reference Ex. 1, sodium 7-[2-(2-aminothiazol-4-yl)-2-(l-carboxylato-l-methylethoxyimino)acetamido]-3-(2-isoquinolinio)methyl-3-cephem-4-carboxylate, reference compound]",3.12 µg/mL,25 µg/mL,50 µg/mL,0.1 µg/mL,1.56 µg/mL,0.2 µg/mL,50 µg/mL,3.12 µg/mL,0.2 µg/mL,100 µg/mL,0.0125 µg/mL,0.78 µg/mL,6.25 µg/mL,0.2 µg/mL,0.1 µg/mL,0.05 µg/mL,1.56 µg/mL,0.2 µg/mL,0.05 µg/mL,1.56 µg/mL,"MIC (K.pneumoniae No. 42; K.pneumoniae No. 42 (β-Lactamase-producing strain), Mueller Hinton agar, inoculum 10⁶ CFU/ml, 37°C, 16 hours): 0.39 µg/mL; MIC (A.calcoaceticus No. 4): 25 µg/mL; MIC (E.coli GN5482): 0.78 µg/mL; MIC (S.marcescens IAM 1184): 0.05 µg/mL; MIC (K.pneumoniae PCI-602): 0.0125 µg/mL; MIC (Ps.cepacia 23): 6.25 µg/mL; MIC (Ps.maltophilia GN 12873): 12.5 µg/mL"

# Source: patent EP0238060B1, “Cephalosporin derivatives, processes for their preparation and antibacterial agents” (Banyu Pharmaceutical Co., Ltd., priority 1986, dated 1987)
